From US20230011571A1, “SMALL MOLECULE FURIN INHIBITORS FOR TREATING INFECTIOUS DISEASES” (BP Asset V, Inc., priority 2019, published 2023) come the findings set out here.

Type in all cases: cell-based
The subject of test [1] is Chikungunya virus (CHIKV). Briefly: microbe, parasite or virus in culture. To be noted: Chikungunya virus, Vero, 48 h, read-out: Percent viral inhibition CHKV.
The subject of test [2] is dengue virus (DENV). Briefly: microbe, parasite or virus in culture. Particulars: Dengue virus, Vero, 120 h, read-out: Percent viral inhibition DENY.
Test [3] concerns Marburg virus (MARV). Briefly: organism not typed. Particulars: Vero, 72 h, read-out: Percent viral inhibition MARV.

`CC(=O)NCC1CCN(Cc2cc(Oc3ccc(N4CCN(CCN(C)S(C)(=O)=O)CC4)nc3)nc(-c3cc(Cl)cc(Cl)c3)c2)CC1` [Example 32, N-((1-((2-(3,5-dichlorophenyl)-6-((6-(4-(2-(N-methylmethylsulfonamido)ethyl)piperazin-1-yl)pyridin-3-yl)oxy)pyridin-4-yl)methyl)piperidin-4-yl)methyl)acetamide]: the inhibition at 1 µM in test [1] was found to be 49.4%; in test [2], 34.2%; in test [3] it was 63.5%.
Turning to `CC(=O)NCC1CCN(Cc2cc(Oc3ccc(N4CCN(C(=O)CCC(=O)O)CC4)nc3)nc(-c3cc(Cl)cc(Cl)c3)c2)CC1` [Example 33, 4-(4-(5-((4-((4-(acetamidomethyl)piperidin-1-yl)methyl)-6-(3,5-dichlorophenyl)pyridin-2-yl)oxy)pyridin-2-yl)piperazin-1-yl)-4-oxobutanoic acid], the inhibition at 1 µM in test [1] was found to be 36.5%; in test [2], 49.4%; in test [3], 67.3%.
`CC(=O)NCC1CCN(Cc2cc(Oc3ccc(N4CCN(CC5(CO)CC5)CC4)nc3)nc(-c3cc(Cl)cc(Cl)c3)c2)CC1` [Example 34, N-((1-((2-(3,5-dichlorophenyl)-6-((6-(4-((1-(hydroxymethyl)cyclopropyl)methyl)piperazin-1-yl)pyridin-3-yl)oxy)pyridin-4-yl)methyl)piperidin-4-yl)methyl)acetamide]: the inhibition at 1 µM was found to be 1.42% in test [1], 46.8% in test [2] and 30.3% in test [3].
`CCNC(=O)CC1CCN(Cc2cc(Oc3ccc(N4CCN(CCCS(C)(=O)=O)CC4)nc3)nc(-c3cc(Cl)cc(Cl)c3)c2)CC1` [Example 36, 2-(1-((2-(3,5-dichlorophenyl)-6-((6-(4-(3-(methylsulfonyl)propyl)piperazin-1-yl)pyridin-3-yl)oxy)pyridin-4-yl)methyl)piperidin-4-yl)-N-ethylacetamide]: the inhibition at 1 µM was found to be 5.78% in test [1], 38% in test [2] and 52.5% in test [3].
In the case of `CNCc1cc(Oc2cnc(N3CCN(CCCS(C)(=O)=O)CC3)nc2)nc(-c2cc(Cl)cc(Cl)c2)c1` [Example 37, 1-(2-(3,5-dichlorophenyl)-6-((2-(4-(3-(methylsulfonyl)propyl)piperazin-1-yl)pyrimidin-5-yl)oxy)pyridin-4-yl)-N-methylmethanamine], the inhibition at 1 µM in test [1] came out at 32.9%; in test [2] it was 100%; in test [3], 56.6%.
For the compound `NS(=O)(=O)CC1CCN(Cc2cc(Oc3ccc(N4CCN(CCC(=O)O)CC4)nc3)nc(-c3cc(Cl)cc(Cl)c3)c2)CC1` [Example 38, 3-(4-(5-((6-(3,5-dichlorophenyl)-4-((4-(sulfamoylmethyl)piperidin-1-yl)methyl)pyridin-2-yl)oxy)pyridin-2-yl)piperazin-1-yl)propanoic acid], the inhibition at 1 µM in test [1] was determined as 39.1%; in test [2], 14.2%; in test [3], 50%.
For `CS(=O)(=O)CC1CCN(Cc2cc(Oc3ccc(N4CCN(CCC(=O)O)CC4)nc3)nc(-c3cc(Cl)cc(Cl)c3)c2)CC1` [Example 39, 3-(4-(5-((6-(3,5-dichlorophenyl)-4-((4-((methylsulfonyl)methyl)piperidin-1-yl)methyl)pyridin-2-yl)oxy)pyridin-2-yl)piperazin-1-yl)propanoic acid], in that order: 23.7%, 54.7% and 60.1%.
On to `CNC(=O)NCC1CCN(Cc2cc(Oc3ccc(N4CCN(CCO)CC4)nc3)nc(-c3cc(Cl)cc(Cl)c3)c2)CC1` [Example 40, 1-((1-((2-(3,5-dichlorophenyl)-6-((6-(4-(2-hydroxyethyl)piperazin-1-yl)pyridin-3-yl)oxy)pyridin-4-yl)methyl)piperidin-4-yl)methyl)-3-methylurea], for which the inhibition at 1 µM in test [1] was 3.24%; in test [2], 0%; in test [3], 0%.
For `CNC(=O)NCC1CCN(Cc2cc(Oc3ccc(N4CCN(CCC(=O)O)CC4)nc3)nc(-c3cc(Cl)cc(Cl)c3)c2)CC1` [Example 41, 3-(4-(5-((6-(3,5-dichlorophenyl)-4-((4-((3-methylureido)methyl)piperidin-1-yl)methyl)pyridin-2-yl)oxy)pyridin-2-yl)piperazin-1-yl)propanoic acid], the inhibition at 1 µM turned out to be 30.1% in test [1], 68.7% in test [2] and 43% in test [3].
In the case of `CC(=O)NCC1CCN(Cc2cc(Oc3ccc(N)cc3)cc(-c3cc(Cl)cc(Cl)c3)c2)CC1` [Example 42, N-((1-((5-(4-aminophenoxy)-3′,5′-dichloro-[1,1′-biphenyl]-3-yl)methyl)piperidin-4-yl)methyl)acetamide], the inhibition at 1 µM in test [1] was 7.42%; in test [2] it was 24%; in test [3] it was 0%.
For the compound `CS(=O)(=O)NCC1CCN(Cc2cc(Oc3ccc(N4CCN(CCC(=O)O)CC4)nc3)nc(-c3cc(Cl)cc(Cl)c3)c2)CC1` [Example 44, 3-(4-(5-((6-(3,5-dichlorophenyl)-4-((4-(methylsulfonamidomethyl)piperidin-1-yl)methyl)pyridin-2-yl)oxy)pyridin-2-yl)piperazin-1-yl)propanoic acid], the values for the inhibition at 1 µM in test [1], in test [2] and in test [3] were 35.5%, 69% and 49%, respectively.
With `CC(=O)NCC1CCN(Cc2cc(Oc3ccc(N)cn3)cc(-c3cc(Cl)cc(Cl)c3)c2)CC1` [Example 45, N-((1-((5-((5-aminopyridin-2-yl)oxy)-3′,5′-dichloro-[1,1′-biphenyl]-3-yl)methyl)piperidin-4-yl)methyl)acetamide], the inhibition at 1 µM in test [1] was 0%; in test [2], 0%; in test [3] it was 18.4%.
Consider `CNC(=O)NCC1CCN(Cc2cc(Oc3cnc(N4CCN(CCCS(N)(=O)=O)CC4)nc3)nc(-c3cc(Cl)cc(Cl)c3)c2)CC1` [Example 48, 3-(4-(5-((6-(3,5-dichlorophenyl)-4-((4-((3-methylureido)methyl)piperidin-1-yl)methyl)pyridin-2-yl)oxy)pyrimidin-2-yl)piperazin-1-yl)propane-1-sulfonamide], for which the inhibition at 1 µM worked out at 15.2% in test [1], 26% in test [2] and 15.7% in test [3].
For the compound `COC(=O)NCC1(F)CCN(Cc2cc(Oc3cnc(N4CCN(CCC(=O)O)CC4)nc3)nc(-c3cc(Cl)cc(Cl)c3)c2)CC1` [Example 51, 3-(4-(5-((6-(3,5-dichlorophenyl)-4-((4-fluoro-4-(((methoxycarbonyl)amino)methyl)piperidin-1-yl)methyl)pyridin-2-yl)oxy)pyrimidin-2-yl)piperazin-1-yl)propanoic acid], the figures for the inhibition at 1 µM in test [1], in test [2] and in test [3] were 21.1%, 56.7% and 43.6%, respectively.
In the case of `CN1CCN(c2ncc(Oc3cc(CN4CCC(CCO)CC4)cc(-c4cc(Cl)cc(Cl)c4)n3)cn2)CC1` [Example 52, 2-(1-((2-(3,5-dichlorophenyl)-6-((2-(4-methylpiperazin-1-yl)pyrimidin-5-yl)oxy)pyridin-4-yl)methyl)piperidin-4-yl)ethanol], the inhibition at 1 µM in test [1] came out at 26.3%; in test [2] it was 45.6%; in test [3] it was 29.9%.
With `CN1CCN(c2ncc(Oc3cc(CN4CCC(OCC(=O)O)CC4)cc(-c4cc(Cl)cc(Cl)c4)n3)cn2)CC1` [Example 53, 2-((1-((2-(3,5-dichlorophenyl)-6-((2-(4-methylpiperazin-1-yl)pyrimidin-5-yl)oxy)pyridin-4-yl)methyl)piperidin-4-yl)oxy)acetic acid], the inhibition at 1 µM came to 30% in test [1], 42.5% in test [2] and 53.5% in test [3].
For the compound `NC(=O)OCCN1CCN(Cc2cc(Oc3cnc(N4CCN(CCC(=O)O)CC4)nc3)nc(-c3cc(Cl)cc(Cl)c3)c2)CC1` [Example 54, 3-(4-(5-((4-((4-(2-(carbamoyloxy)ethyl)piperazin-1-yl)methyl)-6-(3,5-dichlorophenyl)pyridin-2-yl)oxy)pyrimidin-2-yl)piperazin-1-yl)propanoic acid], the inhibition at 1 µM was 36.8% in test [1], 70.5% in test [2] and 62.7% in test [3].
In the case of `NC(=O)OCCN1CCN(Cc2cc(Oc3ccc(N4CCN(CCC(=O)O)CC4)nc3)nc(-c3cc(Cl)cc(Cl)c3)c2)CC1` [Example 55, 3-(4-(5-((4-((4-(2-(carbamoyloxy)ethyl)piperazin-1-yl)methyl)-6-(3,5-dichlorophenyl)pyridin-2-yl)oxy)pyridin-2-yl)piperazin-1-yl)propanoic acid], the inhibition at 1 µM turned out to be 16.8% in test [1], 3.58% in test [2] and 40.2% in test [3].
Consider `COC(=O)NCC1CCN(Cc2cc(Oc3cnc(N4CC5CCC(C4)N5CCC(=O)O)nc3)nc(-c3cc(Cl)cc(Cl)c3)c2)CC1` [Example 56, 3-(3-(5-((6-(3,5-dichlorophenyl)-4-((4-(((methoxycarbonyl)amino)methyl)piperidin-1-yl)methyl)pyridin-2-yl)oxy)pyrimidin-2-yl)-3,8-diazabicyclo[3.2.1]octan-8-yl) propanoic acid], for which the values for the inhibition at 1 µM in test [1], in test [2] and in test [3] were 31.3%, 57.1% and 60.9%, respectively.
For `CC(CCN1CCN(c2ncc(Oc3cc(CN4CCC(CCO)CC4)cc(-c4cc(Cl)cc(Cl)c4)n3)cn2)CC1)C(=O)O` (stereo not drawn) [Example 57, 4-(4-(5-((6-(3,5-dichlorophenyl)-4-((4-(2-hydroxyethyl)piperidin-1-yl)methyl)pyridin-2-yl)oxy)pyrimidin-2-yl)piperazin-1-yl)-2-methylbutanoic acid], the inhibition at 1 µM in test [1] turned out to be 21.1%; in test [2], 37.6%; in test [3], 54.4%.
